Reference: PubChem BioAssay AID651569 (Sanford-Burnham Center for Chemical Genomics, 2012)
Activity calls are given as the source filed them. The rule behind the calls is not given here.

Test system: luminescent cytotoxicity (cell viability) counter-screen
Assay: cytotoxicity of Gli-SUFU antagonist hits, dose response, cytotoxicity control for Gli-SUFU antagonist project, cell-based, luminescence, uHTS hits (AID 651569);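 note: compound exposure lasted overnight before the viability readout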

| Structure (SMILES) | IC50 |
| --- | --- |
| CC(=O)c1ccc(-n2cc(-c3ccc(C(C)(C)C)cc3)[n+]3c2SCCC3)cc1 | > 20 µM (inactive) |
| CN(CCOc1ccc(Cl)cc1)C(=O)c1cccc(S(=O)(=O)N2CCN(c3ccc(F)cc3)CC2)c1 | > 20 µM (inactive) |
| CCCC(C)C(=O)Nc1nc(C)c(-c2csc(Nc3ccc(Cl)cc3)n2)s1 (stereo not drawn) | > 20 µM (inactive) |
| CCOC(=O)CC1CCCCN1C(=O)c1cc(COc2cccc3cnccc23)on1 (stereo not drawn) | > 20 µM (inactive) |
| CC1C(OC(=O)CCC(=O)NC(C)(C)CO)O[C@H]2OC3(C)CC[C@H]4[C@H](C)CCC1C24OO3 (stereo partly drawn) | > 20 µM (inactive) |
| O=C(N/N=C/c1cc2ccccc2nc1Cl)[C@H]1C[C@@H]1c1ccccc1 | > 20 µM (inactive) |
| CCCCOc1ncnc2c1[nH]c1ccc(F)cc12 | > 20 µM (inactive) |
| COc1ccccc1-c1c(-c2ccc(O)cc2O)n[nH]c1C(F)(F)F | > 20 µM (inactive) |
| Cc1c(C(C)C)c(=O)n(-c2ccc(S(=O)(=O)NCc3ccccc3)cc2)n1C | > 20 µM (inactive) |
| CC1CN(S(=O)(=O)c2ccc(C(=O)Nc3nc(-c4cc5ccccc5o4)cs3)cc2)CC(C)O1 (stereo not drawn) | > 20 µM (inactive) |
| COCCn1c(CN2CCC(Cc3ccccc3)CC2)nc2c1c(=O)n(C)c(=O)n2C | > 20 µM (inactive) |
| CCOC(=O)CSc1c(-c2cccs2)[nH]c2ccccc12 | > 20 µM (inactive) |
| O=C(c1cc2sccc2n1Cc1ccccc1)N1CCN(c2nc3ccccc3s2)CC1 | > 20 µM (inactive) |
| COCCNC(=O)CSCc1nc(-c2ccc(SC)cc2)oc1C | > 20 µM (inactive) |
| O=C(N[C@@H]1C/C=C\C[C@@H](CC(=O)N(CCO)Cc2ccccc2)C(=O)NC[C@H](c2ccccc2)OC1=O)OCC1c2ccccc2-c2ccccc21 | > 20 µM (inactive) |
| CC1CCN(Cc2c(C(=O)N/N=C/c3ccccc3O)nnn2-c2nonc2N)CC1 | > 20 µM (inactive) |
| COc1ccc(CN2CCC(C(=O)Nc3ccc(Oc4cccnc4)cc3)CC2)c(C)c1C | 19.5 µM |
| COc1ccc(CC(=O)Nc2cccc(S(=O)(=O)N3CCCCCC3)c2)cc1OC | > 20 µM (inactive) |
| O=C(Cc1ccc(Cl)cc1Cl)Nc1ccncc1 | > 20 µM (inactive) |
| CCOc1ccc(NS(=O)(=O)c2cccc(C(=O)N3CCN(C/C=C/c4ccccc4)CC3)c2)cc1 | > 20 µM (inactive) |
| C/C(=N\NC(=O)C(=O)Nc1ccc(C)c(Cl)c1)c1ccncc1 | > 20 µM (inactive) |
| Cc1ccc(-c2c[n+](Cc3ccc(Cl)c(Cl)c3)c3n2CCC3)cc1 | 13.7 µM |
| Cc1ccc(S(=O)(=O)N2CCN(C(=O)c3ccc(S(=O)(=O)N4CCCC4)cc3)CC2)cc1 | > 20 µM (inactive) |
| CCCCOCCCNc1ncnc2c1[nH]c1ccccc12 | > 20 µM (inactive) |

| Structure (SMILES) | IC50 |
| --- | --- |
| O=C(c1ccc(Cl)cc1)N1CCN(c2ccnc3cc(Cl)ccc23)CC1 | > 20 µM (inactive) |
| CC(Sc1nc2ccccc2c(=O)n1C)C(=O)NC1CCCCC1C (stereo not drawn) | 16.7 µM |
| CC1=CC(C)C2(COC(c3ccc[n+](C)c3)OC2)C(C)C1 (stereo not drawn) | > 20 µM (inactive) |
| c1ccc(-c2cn(-c3ccccc3)c3[n+]2CCS3)cc1 | > 20 µM (inactive) |
| Cc1cc(C)nc(/N=C(\N)Nc2ccccc2-c2ccccc2)n1 | 18.4 µM |
| Fc1ccc(-n2nnnc2-c2cnc(-c3cccs3)nc2C(F)(F)F)cc1 | 17 µM |
| CCOc1ccc(-n2c(-c3ccc(Cl)cc3)c[n+]3c2SCC3)cc1 | 19 µM |
| CCC(C)NC(=O)CCC(=O)OC1O[C@H]2OC3(C)CC[C@H]4[C@H](C)CCC(C1C)C24OO3 (stereo partly drawn) | > 20 µM (inactive) |
| COC(=O)c1cc(S(=O)(=O)N2CCC(c3cc(OC)ccc3OC)C2)c[nH]1 (stereo not drawn) | > 20 µM (inactive) |
| CCOC(=O)C1CCCN(S(=O)(=O)c2ccc(S(=O)(=O)N(CC)CC)cc2)C1 (stereo not drawn) | > 20 µM (inactive) |
| C=C(C)CSc1nc2sc3c(c2c(=O)n1C1CCCCC1)CCN(C)C3 | > 20 µM (inactive) |
| COc1cc(C(=O)NC2CCN(C)CC2)ccc1Nc1ncc2c(n1)N(CCc1ccccc1)CCC(=O)N2C | > 20 µM (inactive) |
| FC(F)(F)c1ccc(N2CCN(c3cc(-c4ccccc4)nc4ncnn34)CC2)nc1 | > 20 µM (inactive) |
| Cc1sc2ncnc(NCc3cccs3)c2c1C | > 20 µM (inactive) |
| CC(=O)c1c(C)[nH]c(C(=O)OCC(=O)Nc2sc3c(c2C#N)CCCC3)c1C | > 20 µM (inactive) |
| S=C(Nc1ccccc1)N1CCC(Cc2ccccc2)CC1 | > 20 µM (inactive) |
| COc1cc(NS(=O)(=O)c2ccc(C)cc2C)cc(OC)c1OC | 16 µM |
| COc1ccc(Nc2nc(N3CCOCC3)nc(N3CCOCC3)n2)c(OC)c1 | > 20 µM (inactive) |
| CCC(CC)CN1C(N(C)C)=NC[C@@H]1CC(C)C | > 20 µM (inactive) |
| c1ccc(Cn2c(-c3ccccc3)c[n+]3c2SCCC3)cc1 | > 20 µM (inactive) |
| O=C(Nc1ccccc1)C1=C[C@@H](C2CCCCC2)C[C@@H](OCCCCO)O1 | > 20 µM (inactive) |
| Cc1cc(C)c[n+](C(C)C(=O)c2ccc(-c3ccccc3)cc2)c1 (stereo not drawn) | > 20 µM (inactive) |
| c1ccc(C[n+]2cccc(-c3ccccc3)c2)cc1 | > 20 µM (inactive) |
| CN1/C(=C\C=Nc2ccccc2)C(C)(C)c2ccccc21 | > 20 µM (inactive) |

| Structure (SMILES) | IC50 |
| --- | --- |
| CC1CCN(c2c(NCc3ccc(C(=O)N4c5ccccc5CC4C)cc3)c(=O)c2=O)CC1 (stereo not drawn) | > 20 µM (inactive) |
| CCOc1ccc(-c2nc(CSCC(=O)NCC3CCCO3)c(C)o2)cc1 (stereo not drawn) | > 20 µM (inactive) |
| CCN1CCCC1CNc1ncnc2c1[nH]c1ccc(Cl)cc12 (stereo not drawn) | > 20 µM (inactive) |
| COc1cc(C(=O)NC2CCN(C)CC2)ccc1Nc1ncc2c(n1)N(Cc1ccccc1)CCC(=O)N2C | > 20 µM (inactive) |
| COc1ccccc1N1CCN(c2ncc(C(=O)N3CCN(c4cccc(Cl)c4)CC3)c3ccccc23)CC1 | > 20 µM (inactive) |
| COc1cccc(CN(C)C(=O)c2cc(COc3ccc4ncccc4c3)on2)c1 | > 20 µM (inactive) |
| CC[N+](C)(CC)CCC(c1ccccc1)C1CCCCC1 (stereo not drawn) | > 20 µM (inactive) |
| CCOc1ccc(-c2cc(C)[n+](CCO)c(-c3ccc(OCC)cc3)c2)cc1 | > 20 µM (inactive) |
| O=C(C[C@@H]1C/C=C\C[C@@H](NC(=O)OCC2c3ccccc3-c3ccccc32)C(=O)OC[C@@H](Cc2ccccc2)NC1=O)NCCO | > 20 µM (inactive) |
| COc1ccccc1CCNC(=O)C(=O)NCCC1CCCCN1S(=O)(=O)c1cccs1 (stereo not drawn) | 13.1 µM |
| Clc1ccc(-n2cc(-c3ccc(Br)cc3)[n+]3c2CCCCC3)cc1 | > 20 µM (inactive) |
| O=C(N[C@@H]1C/C=C\C[C@H](CC(=O)N(CCO)Cc2ccccc2)C(=O)N[C@@H](Cc2c[nH]c3ccccc23)COC1=O)OCC1c2ccccc2-c2ccccc21 | > 20 µM (inactive) |
| COc1ccc(-n2c(-c3ccc(Cl)cc3)c[n+]3c2CCc2ccccc2-3)cc1 | > 20 µM (inactive) |
| O=C(NCCNc1ccnc2cc(Cl)ccc12)c1ccccc1F | > 20 µM (inactive) |
| CNS(=O)(=O)c1cccc(C(=O)OCC(=O)c2cc(C)n(CC3CCCO3)c2C)c1 (stereo not drawn) | > 20 µM (inactive) |
| COc1ccc(N2CCN(c3ncnc4c3[nH]c3ccccc34)CC2)cc1 | > 20 µM (inactive) |
| CCCc1c(CC)c(=N)c2ccccc2n1C | > 20 µM (inactive) |
| CCOC(=O)c1c(NC(=O)COc2ncnc3ccccc23)sc(C(C)=O)c1C | > 20 µM (inactive) |
| CC1CCCCC1NS(=O)(=O)c1ccc(S(=O)(=O)NCc2ccncc2)cc1 (stereo not drawn) | > 20 µM (inactive) |
| CN(Cc1ccc(OC(F)F)cc1)C(=O)c1cccc(S(=O)(=O)N2CCN(Cc3ccccc3)CC2)c1 | > 20 µM (inactive) |
| Cc1nc2ccccc2n1CC(=O)NC(C)C1CC2CCC1C2 (stereo not drawn) | > 20 µM (inactive) |
| Cc1ccc(C2=C(CC(=O)O)C(=O)CC2)cc1 | > 20 µM (inactive) |
| CCOc1ccc(NC(=S)NNc2ccnc3cc(Cl)ccc23)cc1 | > 20 µM (inactive) |
| CCn1cc[n+](C)c1P(c1ccccc1)c1ccccc1 | > 20 µM (inactive) |

| Structure (SMILES) | IC50 |
| --- | --- |
| CCN(CC(=O)Nc1c(F)cccc1F)C(=O)c1cc(S(=O)(=O)N(CC)CC)ccc1N1CCCCC1 | 9.1 µM |
| Cc1ccc2c(c1)c(C)cc[n+]2Cc1ccccc1 | > 20 µM (inactive) |
| O=[N+]([O-])c1ccc(N2CCN(C(=S)NCc3ccc(Cl)cc3)CC2)cc1 | > 20 µM (inactive) |
| CC(C)(C)C1CCC(OC(=O)C[N+]2(C)CCCCC2)CC1 (stereo not drawn) | > 20 µM (inactive) |
| O=C(/C=C/c1ccco1)Nc1ccc(-c2nc3ccccc3[nH]2)cc1 | > 20 µM (inactive) |
| CC(NC(=O)c1cc2c(=O)n3ccccc3nc2n(CC2CCCO2)c1=N)c1ccccc1 (stereo not drawn) | > 20 µM (inactive) |
| CCCCCCn1c(=O)c(C(=O)Nc2cnccn2)c(O)c2ccccc21 | > 20 µM (inactive) |
| O=C(N[C@H]1C/C=C\C[C@@H](CC(=O)N(CCO)Cc2ccccc2)C(=O)NC[C@H](c2ccccc2)OC1=O)OCC1c2ccccc2-c2ccccc21 | > 20 µM (inactive) |
| Cc1cc(N/N=C/c2ccc(O)cc2O)nc(-n2nc(C)cc2C)n1 | > 20 µM (inactive) |
| C[C@@H]1COC(=O)[C@H](NC(=O)OCC2c3ccccc3-c3ccccc32)C/C=C\C[C@@H](CC(=O)N[C@@H](CO)Cc2ccccc2)C(=O)N1 | > 20 µM (inactive) |
| Cc1sc2ncnc(NCC(C)(C)N3CCOCC3)c2c1C | > 20 µM (inactive) |
| O=S(=O)(NCc1ccncc1)c1ccc(S(=O)(=O)NCC2CCCO2)cc1 (stereo not drawn) | > 20 µM (inactive) |
| Cc1ccc(NC(=O)/C=C/c2ccco2)cc1S(=O)(=O)N1CCCCCC1 | 6.1 µM |
| O=C(c1ccc(C(F)(F)F)cc1)C1CCCN(Cc2ccncc2)C1 (stereo not drawn) | 18.2 µM |
| Cc1ccc(Cl)cc1N1CCN(C(=O)CSc2nnc3n2C(C)(C)Cc2ccccc2-3)CC1 | > 20 µM (inactive) |
| O=C1N/C(=C\c2ccc(O)cc2)C(O)=C1C=NCc1ccccc1 | 4.41 µM |
| COc1ccc(-c2noc(CCCCC(=O)N3CCN(c4cc(C)ccc4C)CC3)n2)cc1 | > 20 µM (inactive) |
| C/C(=N\Nc1ccc(Cl)nn1)c1ccccc1O | > 20 µM (inactive) |
| Cc1ccsc1CNc1ncnc2ccc(-c3c(C)noc3C)cc12 | > 20 µM (inactive) |
| CCCCCCC[N+](CC)(CC)CCCCc1ccc(Cl)cc1 | > 20 µM (inactive) |
| C=CCn1c(O)c(N=NC(=S)Nc2cccc(C)c2)c2ccccc21 | > 20 µM (inactive) |
